Measured values: ChEMBL document CHEMBL5537133, “Rational design and optimization of novel 4-methyl quinazoline derivatives as PI3K/HDAC dual inhibitors with benzamide as zinc binding moiety for the treatment of acute myeloid leukemia” (Eur J Med Chem, 2024)

Tests used:
MV4-11 [1] = test: Antiproliferative activity against human MV4-11 cells assessed as reduction in cell viability incubated for 72 hrs by CCK-8 assay; type: functional, cell-based; conditions: MV4-11, 72 h
[2] = molecular target: Phosphatidylinositol 4,5-bisphosphate 3-kinase catalytic subunit alpha isoform (Homo sapiens, UniProt P42336)
Description: Inhibition of PI3Kalpha (unknown origin) using PIP2 as substrate incubated for 1 hr in presence of ATP by ADP-Glo assay

Histone deacetylase 1 = Histone deacetylase 1 (Homo sapiens, UniProt Q13547)
Description: Inhibition of C-terminal 6His-FLAG-tagged human recombinant HDAC1 (1 to 482 residues) expressed in Sf9 cells using Ac-peptide as substrate preincubated for 15 mins followed by substrate addition and measured after 1 hr by plate reader analysis

NB-4 = test: Antiproliferative activity against human NB4 cells assessed as reduction in cell viability incubated for 72 hrs by CCK-8 assay; type: functional, cell-based; conditions: NB-4, 72 h
HL-60 = test: Antiproliferative activity against human HL-60 cells assessed as reduction in cell viability incubated for 72 hrs by CCK-8 assay; type: functional, cell-based; conditions: HL-60, 72 h
DOHH-2 = test: Antiproliferative activity against human DOHH-2 cells assessed as reduction in cell viability incubated for 72 hrs by CCK-8 assay; type: functional, cell-based; conditions: DOHH-2, 72 h
Ramos = test: Antiproliferative activity against human Ramos cells assessed as reduction in cell viability incubated for 72 hrs by CCK-8 assay
Raji = test: Antiproliferative activity against human Raji cells assessed as reduction in cell viability incubated for 72 hrs by CCK-8 assay; type: functional, cell-based
[3] = Antiproliferative activity against human MINO cells assessed as reduction in cell viability incubated for 72 hrs by CCK-8 assay
L1210 = test: Antiproliferative activity against mouse L1210 cells assessed as reduction in cell viability incubated for 72 hrs by CCK-8 assay; type: functional, cell-based; conditions: L1210, 72 h
[4] = tested on: Friend leukemia cell line; test: Antiproliferative activity against mouse Friend leukemia cell line assessed as reduction in cell viability incubated for 72 hrs by CCK-8 assay; type: functional, cell-based
BaF3 = test: Antiproliferative activity against mouse BaF3 cells assessed as reduction in cell viability incubated for 72 hrs by CCK-8 assay; type: functional, cell-based; conditions: BaF3, 72 h
EL4 = test: Antiproliferative activity against mouse EL4 cells assessed as reduction in cell viability incubated for 72 hrs by CCK-8 assay; type: functional, cell-based; conditions: EL4, 72 h
[5] = molecular target: Phosphatidylinositol 4,5-bisphosphate 3-kinase catalytic subunit beta isoform (Homo sapiens, UniProt P42338); test: Inhibition of PI3Kbeta (unknown origin) using PIP2 as substrate incubated for 1 hr in presence of ATP by ADP-Glo assay
[6] = molecular target: Phosphatidylinositol 4,5-bisphosphate 3-kinase catalytic subunit gamma isoform (Homo sapiens, UniProt P48736); test: Inhibition of PI3Kgamma (unknown origin) using PIP2 as substrate incubated for 1 hr in presence of ATP by ADP-Glo assay
[7] = molecular target: Phosphatidylinositol 4,5-bisphosphate 3-kinase catalytic subunit delta isoform (Homo sapiens, UniProt O00329); test: Inhibition of PI3Kdelta (unknown origin) using PIP2 as substrate incubated for 1 hr in presence of ATP by ADP-Glo assay
[8] = molecular target: Serine/threonine-protein kinase mTOR (Homo sapiens, UniProt P42345); test: Inhibition of N-terminal FLAG-tagged recombinant human mTOR (1362 to end residues) using ULight-4E-BP1 (Thr37/46) peptide as substrate incubated for 30 mins in presence of ATP by LANCE ultra assay
Histone deacetylase 2 = Histone deacetylase 2 (Homo sapiens, UniProt Q92769); test: Inhibition of C-terminal His6-FLAG-tagged human recombinant HDAC2 (1 to 488 residues) expressed in Sf9 cells using Ac-peptide as substrate preincubated for 15 mins followed by substrate addition and measured after 1 hr by plate reader analysis
Histone deacetylase 3 = Histone deacetylase 3 (Homo sapiens, UniProt O15379); test: Inhibition of HDAC3 (unknown origin)
Histone deacetylase 4 = Histone deacetylase 4 (Homo sapiens, UniProt P56524); test: Inhibition of N-terminal GST-tagged and C-terminal His-tagged human HDAC4 (627 to 1084 end residues) expressed in baculovirus infected Sf9 cells using Ac-peptide as substrate incubated for 1 hr by plate reader analysis
[9] = molecular target: Protein deacetylase HDAC6 (Homo sapiens, UniProt Q9UBN7); test: Inhibition of HDAC6 (unknown origin)
Histone deacetylase 8 = Histone deacetylase 8 (Homo sapiens, UniProt Q9BY41); test: Inhibition of C-terminal His-tagged human recombinant HDAC8 (1 to 377 end residues) expressed in Sf9 cells using Ac-peptide as substrate incubated for 1 hr by plate reader analysis
Histone deacetylase 11 = Histone deacetylase 11 (Homo sapiens, UniProt Q96DB2); test: Inhibition of human HDAC11 (1 to 347 end residues) expressed in Sf9 cells using Ac-peptide as substrate incubated for 1 hr by plate reader analysis
[10] = Terminal half life in ICR mouse at 6 mg/kg, iv measured after 24 hrs by LC-MS/MS analysis; type: ADME, organism-based; conditions: in vivo
[11] = Terminal half life in ICR mouse at 60 mg/kg, po measured after 24 hrs by LC-MS/MS analysis; type: ADME, organism-based; conditions: in vivo, read-out: beta t1/2 (converted)
[12] = Tmax in ICR mouse at 60 mg/kg, po measured after 24 hrs by LC-MS/MS analysis; type: ADME, organism-based; conditions: in vivo
[13] = Cmax in ICR mouse at 6 mg/kg, iv measured after 24 hrs by LC-MS/MS analysis; type: ADME, organism-based; conditions: in vivo
[14] = Cmax in ICR mouse at 60 mg/kg, po measured after 24 hrs by LC-MS/MS analysis; type: ADME, organism-based; conditions: in vivo
[15] = AUC(0 to t) in ICR mouse at 6 mg/kg, iv measured after 24 hrs by LC-MS/MS analysis; type: ADME, organism-based; conditions: in vivo
[16] = AUC(0 to t) in ICR mouse at 60 mg/kg, po measured after 24 hrs by LC-MS/MS analysis; type: ADME, organism-based; conditions: in vivo
[17] = AUC(0 to infinity) in ICR mouse at 6 mg/kg, iv measured after 24 hrs by LC-MS/MS analysis; type: ADME, organism-based; conditions: in vivo
[18] = AUC(0 to infinity) in ICR mouse at 60 mg/kg, po measured after 24 hrs by LC-MS/MS analysis; type: ADME, organism-based; conditions: in vivo
MV4-11 [19] = test: Antitumor activity against human MV4-11 cells xenografted in BALB/c nude mouse assessed as tumor growth inhibition at 10 mg/kg, ip administered once daily for 14 days relative to control; type: functional; conditions: MV4-11, 336 h, time 14 day, read-out: TGI
MV4-11 [20] = test: Antitumor activity against human MV4-11 cells xenografted in BALB/c nude mouse assessed as tumor growth inhibition at 20 mg/kg, ip administered once daily for 14 days relative to control; type: functional; conditions: MV4-11, 336 h, time 14 day, read-out: TGI
MV4-11 [21] = test: Antitumor activity against human MV4-11 cells xenografted in BALB/c nude mouse assessed as tumor growth inhibition at 60 mg/kg, po administered once daily for 14 days relative to control; type: functional; conditions: MV4-11, 336 h, time 14 day, read-out: TGI
[22] = Toxicity in BALB/c nude mouse xenografted with human MV4-11 cells assessed as change in body weight at 10 to 20 mg/kg, ip administered only daily for 14 days and measured twice a week; type: organism-based; conditions: in vivo, 336 h, dose 10-20 mg/kg, time 14 day
[23] = Toxicity in BALB/c nude mouse xenografted with human MV4-11 cells assessed as change in body weight at 60 mg/kg, po administered only daily for 14 days and measured twice a week; type: organism-based; conditions: in vivo, 336 h, time 14 day
[24] = Apparent volume of distribution in ICR mouse at 6 mg/kg, iv measured after 24 hrs by LC-MS/MS analysis; type: ADME, organism-based; conditions: in vivo
[25] = Oral bioavailability in ICR mouse at 60 mg/kg measured after 24 hrs by LC-MS/MS analysis; type: ADME, organism-based; conditions: in vivo

Phosphatidylinositol 4,5-bisphosphate 3-kinase catalytic subunit alpha isoform, sequence (P42336 whole entry, canonical isoform): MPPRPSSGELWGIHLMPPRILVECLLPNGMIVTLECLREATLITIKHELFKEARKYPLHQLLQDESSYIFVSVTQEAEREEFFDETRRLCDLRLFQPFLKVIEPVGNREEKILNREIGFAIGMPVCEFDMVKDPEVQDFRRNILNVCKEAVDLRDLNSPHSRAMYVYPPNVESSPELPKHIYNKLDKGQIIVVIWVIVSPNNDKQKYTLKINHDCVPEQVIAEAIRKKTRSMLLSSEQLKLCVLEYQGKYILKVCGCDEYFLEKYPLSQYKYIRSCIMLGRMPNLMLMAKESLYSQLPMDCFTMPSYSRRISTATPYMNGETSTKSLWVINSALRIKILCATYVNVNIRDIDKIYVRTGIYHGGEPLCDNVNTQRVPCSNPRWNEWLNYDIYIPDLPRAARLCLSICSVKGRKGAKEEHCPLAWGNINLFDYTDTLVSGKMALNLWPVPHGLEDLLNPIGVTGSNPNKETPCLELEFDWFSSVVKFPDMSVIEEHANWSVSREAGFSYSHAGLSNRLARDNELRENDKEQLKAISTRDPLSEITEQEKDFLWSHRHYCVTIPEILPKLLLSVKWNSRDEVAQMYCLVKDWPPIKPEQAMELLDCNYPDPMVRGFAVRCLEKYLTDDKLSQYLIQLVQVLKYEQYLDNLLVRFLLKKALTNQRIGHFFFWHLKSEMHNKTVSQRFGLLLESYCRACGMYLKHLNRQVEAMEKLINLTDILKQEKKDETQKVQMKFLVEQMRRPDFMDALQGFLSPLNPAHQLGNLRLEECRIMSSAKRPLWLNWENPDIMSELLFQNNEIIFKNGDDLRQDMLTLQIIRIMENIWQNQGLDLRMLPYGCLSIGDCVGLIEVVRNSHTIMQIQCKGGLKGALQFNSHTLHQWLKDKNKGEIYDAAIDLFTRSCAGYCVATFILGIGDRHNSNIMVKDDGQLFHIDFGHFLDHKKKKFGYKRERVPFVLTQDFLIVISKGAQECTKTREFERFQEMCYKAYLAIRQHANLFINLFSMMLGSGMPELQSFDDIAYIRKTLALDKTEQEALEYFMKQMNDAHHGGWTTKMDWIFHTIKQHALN
Histone deacetylase 1, sequence (Q13547 whole entry): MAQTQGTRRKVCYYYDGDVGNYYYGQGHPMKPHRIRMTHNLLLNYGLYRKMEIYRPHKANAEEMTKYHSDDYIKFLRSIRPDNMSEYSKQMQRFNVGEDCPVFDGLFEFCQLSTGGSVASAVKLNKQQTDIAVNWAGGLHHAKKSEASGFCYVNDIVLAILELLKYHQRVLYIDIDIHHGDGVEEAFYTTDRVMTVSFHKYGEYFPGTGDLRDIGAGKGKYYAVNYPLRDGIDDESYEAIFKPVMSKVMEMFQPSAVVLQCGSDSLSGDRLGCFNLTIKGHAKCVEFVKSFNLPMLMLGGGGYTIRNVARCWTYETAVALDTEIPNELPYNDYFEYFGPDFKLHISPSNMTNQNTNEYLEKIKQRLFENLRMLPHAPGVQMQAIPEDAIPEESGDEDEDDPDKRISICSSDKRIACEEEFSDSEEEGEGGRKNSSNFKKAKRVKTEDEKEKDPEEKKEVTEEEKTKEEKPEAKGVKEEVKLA
Histone deacetylase 11, sequence (Q96DB2 whole entry): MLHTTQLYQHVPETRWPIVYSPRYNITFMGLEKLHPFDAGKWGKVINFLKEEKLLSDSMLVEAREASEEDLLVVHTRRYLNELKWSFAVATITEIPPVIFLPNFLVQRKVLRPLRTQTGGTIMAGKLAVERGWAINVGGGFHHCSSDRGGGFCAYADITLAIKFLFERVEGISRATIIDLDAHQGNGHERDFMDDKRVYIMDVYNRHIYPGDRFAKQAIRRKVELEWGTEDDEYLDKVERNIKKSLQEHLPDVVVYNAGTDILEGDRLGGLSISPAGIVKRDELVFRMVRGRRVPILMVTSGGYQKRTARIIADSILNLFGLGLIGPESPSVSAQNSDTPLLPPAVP
Protein deacetylase HDAC6, sequence (Q9UBN7 whole entry): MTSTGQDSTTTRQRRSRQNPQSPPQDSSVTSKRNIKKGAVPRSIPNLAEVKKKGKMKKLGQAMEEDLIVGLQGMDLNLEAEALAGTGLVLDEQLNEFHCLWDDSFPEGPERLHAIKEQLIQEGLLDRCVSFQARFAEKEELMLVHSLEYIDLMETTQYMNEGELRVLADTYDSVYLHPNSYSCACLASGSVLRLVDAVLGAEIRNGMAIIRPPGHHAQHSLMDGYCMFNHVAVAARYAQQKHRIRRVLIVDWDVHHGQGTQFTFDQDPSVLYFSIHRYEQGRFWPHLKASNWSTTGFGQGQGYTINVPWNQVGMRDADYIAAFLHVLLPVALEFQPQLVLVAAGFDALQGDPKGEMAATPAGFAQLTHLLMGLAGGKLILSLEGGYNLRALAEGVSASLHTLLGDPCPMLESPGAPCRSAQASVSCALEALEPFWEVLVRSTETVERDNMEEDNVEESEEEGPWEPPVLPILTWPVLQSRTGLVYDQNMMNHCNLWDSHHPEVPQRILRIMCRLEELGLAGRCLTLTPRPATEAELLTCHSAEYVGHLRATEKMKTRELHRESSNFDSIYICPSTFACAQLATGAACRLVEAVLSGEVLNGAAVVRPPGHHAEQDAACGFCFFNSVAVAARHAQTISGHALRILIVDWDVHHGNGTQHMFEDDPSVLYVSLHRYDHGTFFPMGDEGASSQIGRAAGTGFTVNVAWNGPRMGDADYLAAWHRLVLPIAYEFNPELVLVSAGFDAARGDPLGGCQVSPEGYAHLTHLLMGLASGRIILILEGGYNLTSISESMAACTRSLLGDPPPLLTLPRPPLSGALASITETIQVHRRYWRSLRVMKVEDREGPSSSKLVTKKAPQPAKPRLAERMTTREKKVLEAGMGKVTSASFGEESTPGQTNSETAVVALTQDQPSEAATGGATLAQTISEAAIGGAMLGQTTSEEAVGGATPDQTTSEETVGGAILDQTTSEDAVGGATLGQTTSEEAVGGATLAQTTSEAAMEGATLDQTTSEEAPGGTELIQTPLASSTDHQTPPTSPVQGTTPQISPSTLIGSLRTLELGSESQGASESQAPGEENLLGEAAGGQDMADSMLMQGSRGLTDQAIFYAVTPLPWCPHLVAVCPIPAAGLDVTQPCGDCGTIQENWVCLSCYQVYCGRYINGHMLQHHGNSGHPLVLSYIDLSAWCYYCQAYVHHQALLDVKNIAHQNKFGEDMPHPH
Histone deacetylase 3, sequence (O15379 whole entry): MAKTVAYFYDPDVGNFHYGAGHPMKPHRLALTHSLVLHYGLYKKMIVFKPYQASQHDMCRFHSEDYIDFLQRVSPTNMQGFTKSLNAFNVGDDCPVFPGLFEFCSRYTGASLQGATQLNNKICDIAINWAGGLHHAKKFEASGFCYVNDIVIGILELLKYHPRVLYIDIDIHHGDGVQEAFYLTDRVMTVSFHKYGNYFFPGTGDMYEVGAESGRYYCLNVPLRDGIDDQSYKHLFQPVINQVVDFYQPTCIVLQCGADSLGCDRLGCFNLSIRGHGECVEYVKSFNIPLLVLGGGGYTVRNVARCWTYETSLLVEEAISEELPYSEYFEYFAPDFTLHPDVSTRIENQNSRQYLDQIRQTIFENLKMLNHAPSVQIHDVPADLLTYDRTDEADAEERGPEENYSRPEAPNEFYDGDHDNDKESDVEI
Histone deacetylase 2, sequence (Q92769 whole entry, the tested form may be a part): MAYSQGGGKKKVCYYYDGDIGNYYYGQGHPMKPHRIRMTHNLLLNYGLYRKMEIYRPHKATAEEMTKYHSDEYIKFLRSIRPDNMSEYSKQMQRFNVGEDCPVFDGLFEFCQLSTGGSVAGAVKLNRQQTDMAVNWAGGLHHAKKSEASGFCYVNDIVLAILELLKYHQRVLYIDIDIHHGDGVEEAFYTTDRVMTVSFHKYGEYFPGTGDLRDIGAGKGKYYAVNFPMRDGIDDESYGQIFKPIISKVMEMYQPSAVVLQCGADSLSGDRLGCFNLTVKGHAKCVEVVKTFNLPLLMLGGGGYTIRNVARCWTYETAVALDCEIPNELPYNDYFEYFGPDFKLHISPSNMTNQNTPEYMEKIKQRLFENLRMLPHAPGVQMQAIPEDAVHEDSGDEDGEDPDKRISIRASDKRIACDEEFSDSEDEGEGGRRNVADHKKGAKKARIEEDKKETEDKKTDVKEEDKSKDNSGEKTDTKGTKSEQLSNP
Histone deacetylase 8, sequence (Q9BY41 whole entry): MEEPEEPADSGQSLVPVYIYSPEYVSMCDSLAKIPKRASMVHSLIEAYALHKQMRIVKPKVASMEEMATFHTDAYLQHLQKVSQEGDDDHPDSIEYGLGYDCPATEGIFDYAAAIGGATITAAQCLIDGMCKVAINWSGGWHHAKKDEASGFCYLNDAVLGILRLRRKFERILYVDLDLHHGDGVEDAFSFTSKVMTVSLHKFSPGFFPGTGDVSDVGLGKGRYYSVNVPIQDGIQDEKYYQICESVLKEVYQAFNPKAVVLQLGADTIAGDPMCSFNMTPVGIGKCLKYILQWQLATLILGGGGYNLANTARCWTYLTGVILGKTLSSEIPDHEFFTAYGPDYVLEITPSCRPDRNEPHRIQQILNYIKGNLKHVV

SMILES: COc1ncc(-c2cc(OCCCCC(=O)Nc3ccccc3N)c3ncnc(C)c3c2)cc1NS(=O)(=O)c1ccc(F)cc1F
- IC50 (MV4-11 [1]): 20 nM
- IC50 [2]: 0.2 nM
- IC50 (Histone deacetylase 1): 3560 nM

SMILES: Nc1cc(C(F)(F)F)c(-c2cc(N3CCOCC3)nc(N3CCOCC3)n2)cn1 [BUPARLISIB]
- IC50 (MV4-11 [1]): 560 nM
- IC50 (NB-4): 750 nM
- IC50 (HL-60): 1200 nM
- IC50 (DOHH-2): 1.4 µM
- IC50 (Ramos): 5.4 µM
- IC50 (Raji): 0.99 µM
- IC50 [3]: 1.5 µM
- IC50 (L1210): 370 nM
- IC50 [4]: 810 nM
- IC50 (BaF3): 4800 nM
- IC50 (EL4): 860 nM

SMILES: COc1ncc(-c2cc(OCCCCCCC(=O)Nc3ccccc3N)c3ncnc(C)c3c2)cc1NS(=O)(=O)c1ccc(F)cc1F
- IC50 (MV4-11 [1]): 4 nM
- IC50 [5]: 0.66 nM
- IC50 [6]: 1.8 nM
- IC50 [7]: 1.9 nM
- IC50 [8]: 3.4 nM
- IC50 (Histone deacetylase 2): 181 nM
- IC50 (Histone deacetylase 3): 899 nM
- IC50 (Histone deacetylase 4): > 10 µM
- IC50 [9]: > 10 µM
- IC50 (Histone deacetylase 8): > 10 µM
- IC50 (Histone deacetylase 11): > 10 µM
- IC50 (NB-4): 40 nM
- IC50 (HL-60): 210 nM
- IC50 (DOHH-2): 5.4 µM
- IC50 (Ramos): 4.4 µM
- IC50 (Raji): 6.3 µM
- IC50 [3]: 5.4 µM
- IC50 (L1210): 140 nM
- IC50 [4]: 350 nM
- IC50 (BaF3): 130 nM
- IC50 (EL4): 560 nM
- beta t1/2 [10]: 2.3 h
- half-life [11]: 82.8 min
- Tmax [12]: 31.2 min
- Cmax [13]: 8310 ng/mL
- Cmax [14]: 3780 ng/mL
- AUC(0-t) at 24 h [15]: 1580 ng·h/mL
- AUC(0-t) at 24 h [16]: 5020 ng·h/mL
- AUC [17]: 1605 ng·h/mL
- AUC ([18]; po, 60 mg/kg, 24 h): 5042 ng·h/mL
- inhibition in vivo at 10 mg/kg (MV4-11 [19]): 53.6%
- inhibition in vivo at 20 mg/kg (MV4-11 [20]): 75%
- inhibition in vivo at 60 mg/kg (MV4-11 [21]): 53.6%
- Activity [22]: Non-Toxic
- Activity [23]: Non-Toxic
- IC50 [2]: 0.23 nM
- IC50 (Histone deacetylase 1): 172 nM

SMILES: COc1ncc(-c2cc(OCCOc3ccc(C(=O)Nc4ccccc4N)cc3)c3ncnc(C)c3c2)cc1NS(=O)(=O)c1ccc(F)cc1F
- IC50 (MV4-11 [1]): 410 nM
- IC50 [2]: 0.58 nM
- IC50 (Histone deacetylase 1): 56 nM

SMILES: COc1ncc(-c2cc(OCCCc3ccc(C(=O)Nc4ccccc4N)cc3)c3ncnc(C)c3c2)cc1NS(=O)(=O)c1ccc(F)cc1F
- IC50 (MV4-11 [1]): 50 nM
- IC50 [5]: 0.62 nM
- IC50 [6]: 15 nM
- IC50 [7]: 1.8 nM
- IC50 [8]: 9.5 nM
- IC50 (Histone deacetylase 2): 84.5 nM
- IC50 (Histone deacetylase 3): 6.6 nM
- IC50 (Histone deacetylase 4): > 10 µM
- IC50 [9]: > 10 µM
- IC50 (Histone deacetylase 8): > 10 µM
- IC50 (Histone deacetylase 11): 3.52 µM
- IC50 (NB-4): 370 nM
- IC50 (HL-60): 330 nM
- IC50 (DOHH-2): 5.3 µM
- IC50 (Ramos): 5 µM
- IC50 (Raji): 4.6 µM
- IC50 [3]: 6.6 µM
- IC50 (L1210): 850 nM
- IC50 [4]: 320 nM
- IC50 (BaF3): 80 nM
- IC50 (EL4): 840 nM
- beta t1/2 [10]: 2.43 h
- half-life [11]: 268 min
- Tmax [12]: 15 min
- Cmax [14]: 306 ng/mL
- AUC(0-t) at 24 h [15]: 4880 ng·h/mL
- AUC(0-t) at 24 h [16]: 1230 ng·h/mL
- AUC [17]: 4930 ng·h/mL
- AUC(0-inf) ([18]; ICR): 1710 ng·h/mL
- Vz [24]: 4.27 L/kg
- bioavailability [25]: 3.5%
- inhibition in vivo at 10 mg/kg (MV4-11 [19]): 50%
- inhibition in vivo at 20 mg/kg (MV4-11 [20]): 60.7%
- inhibition in vivo at 60 mg/kg (MV4-11 [21]): 64.3%
- Activity [22]: Non-Toxic
- Activity [23]: Non-Toxic
- IC50 [2]: 0.26 nM
- IC50 (Histone deacetylase 1): 28 nM

SMILES: COc1ncc(-c2cc(OCCCOc3ccc(C(=O)Nc4ccccc4N)cc3)c3ncnc(C)c3c2)cc1NS(=O)(=O)c1ccc(F)cc1F
- IC50 (MV4-11 [1]): 390 nM
- IC50 [2]: 0.39 nM
- IC50 (Histone deacetylase 1): 95 nM

SMILES: COc1ncc(-c2cc(OCCCCCCCC(=O)Nc3ccccc3N)c3ncnc(C)c3c2)cc1NS(=O)(=O)c1ccc(F)cc1F
- IC50 (MV4-11 [1]): 20 nM
- IC50 [2]: 0.28 nM
- IC50 (Histone deacetylase 1): 525 nM

SMILES: COc1ncc(-c2cc(OCCCCCCC(=O)NO)c3ncnc(C)c3c2)cc1F
- IC50 (MV4-11 [1]): 250 nM
